Experiments:
[1] = Fluorescence emission spectrum; type: physicochemical; settings: drug 10 µM in 20 mM Tris buffer, pH 7.5; λ = 500–750 nm
Protocol: (§1) Fluorescence measurements of Dau and Dau-Arg6 were carried out with a JASCO spectrofluorimeter (FP8200) using Quartz cells of 1 cm. Spectra were recorded at drug concentration of 10 µM in a final volume of 1 ml of 20 mM Tris buffer (pH 7.5).

Calf Thymus-DNA (ctDNA) = assay: DNA thermal melting monitored by circular dichroism; type: binding; settings: 4 µM drug, ctDNA 0.2 mg/mL, Tris–HCl buffer, λ = 260 nm
Protocol: Melting studies were performed on a JascoJ-810 spectropolarimeter as described above by raising the temperature from 5 to 90 °C in 1 °C/min increments using a circulating water bath and monitoring the profiles at λ = 260 nm.
The DNA thermal melting was measured by monitoring the changes of HT[V] signal with temperature. Melting temperatures (Tm) were determined for each transition data by fitting sigmoidal curves using Boltzmann equations and obtaining good R-squared values (>0.95).

Calf Thymus DNA (ctDNA) = assay: Circular dichroism / induced circular dichroism (ICD) of ctDNA; type: binding
Protocol: Circular dichroism (CD) measurements were performed on a JascoJ-810 spectropolarimeter using a 0.1 cm path-length quartz cuvette at room temperature and the following parameters: three scans at a speed of 20 nm/min, 3 accumulations, 4 s time constant, 1 nm band width and 0.2 nm data pitch.
The spectral bandwidth was set up at 1 nm in the wavelength range of λ = 225–300 nm. The CD spectra of Calf Thymus DNA (ctDNA; 0.2 mg/mL) with or without drug (at selected concentrations) were measured under a nitrogen atmosphere using a 10 mM Tris-HCl buffer at pH 7.5. Results are presented as a mean of three scans and the buffer background was electronically subtracted from each measurement.
ICD measurements were recorded by keeping the concentration of ctDNA constant (0.2 mg/mL) and increasing drugs concentrations from 0 to 120 µM.

h-TopoIIα = h-TopoIIα DNA relaxation assay (negatively supercoiled pBs plasmid, agarose gel); type: biochemical, human; settings: drug 1.2 μM; h-TopoIIα 0.4 units; pBs 7.5 nM; drug-DNA pre-incubation 10 min at 4 °C, then 30 min at 30 °C; pH 7.9, 1 mM ATP; 1.2% agarose gel, ethidium bromide; three independent assays
Protocol: (§2) Human topoisomerase IIα (h-TopoIIα) was purchased from Affymetrix (product number 78303) and stored at −20 °C. Human Topoisomerase I (Sigma, St. Louis, MO). pBluescript (pBs) negatively supercoiled plasmid was directly extracted from an over-night E. coli cell culture by Invitrogen HiPure Plasmid Midi prep Kit according to the instruction of the manufacturers.
(§3) DNA relaxation assays were performed as previously described[24]^,[25] using the negative supercoiled pBluScript plasmid (pBS) purified from Escherichia coli as a substrate of DNA topoisomerases.
For h-TopoII-α assay the enzyme (0.4 units) was incubated for 30 min at 30 °C with negatively supercoiled pBS plasmid (7.5 nM), in a final volume of 20 µl of 1× reaction Buffer (10 mM Tris-HCl, pH 7.9, 50 mM NaCl, 50 mM KCl, 0.1 mM EDTA, 5 mM MgCl2, 15 µg/ml BSA, 1 mM ATP). […]
(§4) All reactions were stopped by the addition of SDS to a final concentration of 1% and the products were analysed by electrophoresis on a 1.2% agarose gel in presence of 0.5X Tris-Borate EDTA buffer. […] Finally the DNA bands were visualised using a BioRad Versadoc imaging system and quantified by Quantity One® software. The relative intensity of each band in the experiment was measured and used to calculate the amount of total DNA and the fraction of total products. For each condition the relaxation activity was expressed as a percentage of DNA products on total DNA[26].

DNA plasmid (pBs) = assay: Fluorescence quenching titration with plasmid DNA; type: binding; settings: drug 10 µM, pBs plasmid 5 to 40 nM, 20 mM Tris pH 7.5, 5 min equilibrium, room temperature
Protocol: as §1
For quenching experiment fluorescence titrations were conducted by keeping the concentration of drugs constant and varying the concentration of pBs plasmid from 5 to 40 nM. The spectroscopic measurements were recorded after 5 min to reach the equilibrium between the drugs and DNA. The spectra were recorded at room temperature in the wavelengths range of λ = 500–700 nm.

h-TopoI = h-TopoI DNA relaxation assay (negatively supercoiled pBluescript plasmid, agarose gel); type: biochemical, human; settings: drug 1.2 uM (not saturating); h-TopoI 100 nM; plasmid 7.5 nM; drug-DNA pre-incubation 10 min at 4 °C, then 60 min at 37 °C; pH 7.0; 1.2% agarose gel, ethidium bromide
Protocol: as §2, §3
For h-TopoI assay the enzyme (100 nM), was incubated for 60 min at 37 °C with negatively supercoiled pBluescript plasmid (7.5 nM) in a final volume of 20 µL of 1X reaction Buffer (10 mM Tris-HCl, pH 7.0, 100 mM NaCl, 0.1 mM NaEDTA, 10 mM MgCL2 and 50 µg/ml BSA). […]
as §4

With `COc1cccc2c1C(=O)c1c(O)c3c(c(O)c1C2=O)C[C@@](O)(C(C)=O)C[C@@H]3O[C@H]1C[C@H](N)[C@H](O)[C@H](C)O1` [Dau, daunomycin] the “emission maximum λmax” value [1] was 596 nm, the “melting temperature (Tm) of ctDNA with drug” value (Calf Thymus-DNA (ctDNA); 5 to 90 °C at 1 °C/min, Boltzmann fit, ctDNA alone 81.3 °C) was 90.3 °C and the “increase in melting temperature of ctDNA” value (Calf Thymus-DNA (ctDNA); versus ctDNA without drugs (81 °C)) was “about 9 °C”. For the same compound, the “DNA binding mode” value (Calf Thymus DNA (ctDNA); CD studies with ctDNA 0.2 mg/mL, 10 mM Tris-HCl pH 7.5) was “mainly by intercalation”, the “change of negative CD band of ctDNA at λ = 245 nm” value (Calf Thymus DNA (ctDNA); ctDNA 0.2 mg/mL, 10 mM Tris-HCl pH 7.5, room temperature, increasing drug concentration, mean of three scans) was “shifting to zero level” and the “inhibition of the total h-TopoIIα activity (DNA relaxation)” value (h-TopoIIα) was 50%. For the same compound, the “fluorescence intensity on titration with DNA plasmid” value (DNA plasmid (pBs)) was “decreases with increasing concentration of DNA” and the “inhibition of the TopoI activity (DNA relaxation)” value (h-TopoI) was 20%.
